Assay results taken from PMC5238392, “Origin of anti-tumor activity of the cysteine-containing GO peptides and further optimization of their cytotoxic properties” (Scientific Reports, 2017).

Legend:
ZR-75-1 cells = assay: Caspase 3/7 activation assay (CellEvent / SYTOX), ZR-75-1; type: cell-based, human; conditions: 10 μM, 4 h, Fig. 4D
Text: A complementary perspective on GO-203-induced apoptosis is provided by the caspase 3/7 activation assay, Fig. 4. In both HT-1080 and ZR-75-1, the data offer a clear view of the early and late apoptotic populations. The time dependence illustrated in Fig. 4E,F confirms that the onset of apoptosis occurs sufficiently rapidly in both cell lines – by the time of flow-cytometry observations the system has already approached the steady state. In the literature there is some evidence that activation of executioner caspases may precede the translocation of phosphatidylserine to the outer leaf of the membrane. While this could be in principle relevant for comparison between the Annexin V assay and caspase activation assay, one should bear in mind that in our case both assays offer a snapshot of a fairly advanced apoptotic process.
Figure 4 GO-203-induced apoptosis in HT-1080 and ZR-75-1 cells as assessed by the double staining with CellEvent caspase-3/7 green detection reagent and vital dye SYTOX. (A–D) Flow cytometry histograms for the cells incubated for 4 h with 10 μM of GO-203 and the untreated (control) cells. (E–G) Apoptotic fractions in the GO-203-treated and untreated (control) cells as a function of incubation time and GO-203 concentration. TEXT PRINTED IN THE PICTURE: (B) GO-203: HT-1080: IV.(0.11 %); HT-1080: III.(64.49 %); HT-1080: I.(12.21 %); HT-1080: II.(23.20 %) | (D) GO-203: ZR-75-1: IV.(0.40 %); ZR-75-1: III.(35.18 %); ZR-75-1: I.(28.95 %); ZR-75-1: II.(35.47 %)
(§1) The adherent cells were rinsed with PBS, harvested using trypsin-EDTA solution and suspended in the growth medium. To analyze cell cycle phase distribution, 200 μg/ml of saponin (Fluka, USA), 250 μg/ml RNase A, and 50 μg/ml of propidium iodide (both Sigma-Aldrich, USA) were added to each sample tube, thus obtaining DNA stain buffer. After 1 h incubation at room temperature, the samples were analyzed by flow cytometry. To detect apoptosis by flow cytometry, CellEvent Caspase-3/7 Green Flow Cytometry Assay Kit (Thermo Fisher Scientific, USA) and Annexin-V FITC conjugate (BD Biosciences, USA) in combination with propidium iodide have been employed following the manufacturer’s protocols.
Cell fluorescence was measured using CytoFLEX (Beckman Coulter, USA) flow cytometer equipped with 3 lasers (405, 488 and 633 nm). Cells were gated on FSC/SSC to remove debris. Mean fluorescence intensity from 10,000 cells was acquired.

HT-1080 cells [1] = assay: Cell cycle phase distribution, HT-1080; type: cell-based, human; conditions: 24 h incubation with 5 μM
Protocol: The onset and the progression of the apoptosis are relatively fast, on the time scale of 1 h. […] Indeed, the cell cycle phase distribution remains unaffected by addition of the peptide. For example, in the untreated (control) HT-1080 sample the distribution between G0/G1, S, and G2/M phases is 52%, 23% and 26%, respectively. After 24 h incubation with 5 μM GO-203 this proportion is essentially unchanged at 50%, 24%, and 27%.
as §1
Figure S2. Cell cycle distribution for (A) HT-1080 cells treated with one-time dose of 5 μM GO-203 and (B) ZR-75-1 cells treated with one-time dose of 10 μM GO-203. The peptide concentrations have been chosen such as to induce significant cytotoxic effect without causing massive cell death. The data were taken 24 h after the application of the peptide.
Figure S3. H2DCFDA/DCFDA experiment to assess the level of ROS in (A) HT-1080 cells after 30 min incubation with 5 μM GO-203 and (B) ZR-75-1 cells after 30 min incubation with 10 μM GO-203. A statistically significant difference in the intensity of DCF fluorescence response is marked by an asterisk. […]

HT-1080 cells [2] = assay: carboxy-H2DCFDA time-dependent intracellular ROS, HT-1080; type: cell-based, human; conditions: suspended HT-1080; 5 μM
Text: In broad terms, apoptosis is classified into two fundamental modes: mitochondrial pathway and death receptor pathway. In the former mechanism, apoptotic signals lead to a loss of mitochondrial membrane potential, termination of mitochondrial ATP synthesis, overproduction of reactive oxygen species (ROS) and their release into cytosol along with a number of pro-apoptotic proteins that are normally confined to the intermembrane space of the mitochondria. To determine whether this mechanism is relevant for GO-203-induced cell death, we have analyzed the time variation of mitochondrial membrane potential and cellular level of ROS over the time interval of 2 h following the addition of the peptide. […] The fluorescence was measured concurrently with the side angle light scatter.
To confirm this finding we have also used the carboxy-H2DCFDA probe of the general oxidative stress. […] The results of the ROS assay in HT-1080, where the intensity of fluorescence signal reflects the level of intracellular oxidants, are shown in Fig. 6B. […]
The cells were seeded into 35-mm Nunc culture dishes (Thermo Scientific, USA) at 1.2 × 10^5 cells per dish and allowed to attach for 24 h. […] After that GO-203 was added directly to the suspension and cell fluorescence was measured by flow cytometry at multiple time points during the following 2 hours. […] Cell fluorescence was then immediately measured by flow cytometry. […]

[3] = test system: human breast carcinoma cell line ZR-75-1; assay: MTS cell viability assay, ZR-75-1
Protocol: As a next step, we used MTS assay[27] to examine the effect of GO peptides on the viability of the four described cell cultures as a function of different treatment schemes. […] This treatment regimen is labeled 4 × 5 underneath the graph. Alternatively, we introduced 5 μM of peptide daily while exchanging the medium (denoted 4/5). Unlike the previous protocol, it avoids potential build-up of the peptide in the medium.
The treatment protocols are: 4 × 5 – four daily doses of 5 μM delivered without exchanging the growth medium; 4/5 – four daily doses of 5 μM delivered with exchanged growth medium; 1 × 5, 1 × 10, 1 × 15, and 1 × 20 – a single dose of 5, 10, 15, or 20 μM, respectively. MTS reagent was added to the wells 96 h after the first (and sometimes the only) application of the peptide and the optical density at 492 nm was measured to determine the fraction of the surviving cells.
The data are according to the MTS assay, where the optical density was measured 96 h after the application of the peptide.
Cell survival was measured using CellTiter 96 AQueous One Solution Cell Proliferation Assay (MTS test, Promega, USA). Cells have been seeded in a 96-well flat-bottom plate in 100 μl of culture medium (10^3 cells/well for A549, HT-1080, dermal fibroblasts and eMSC or 5 × 10^3 cells/well for ZR-75-1) and allowed to attach for 24 h. The starting amount of cells was chosen to account for their growth rate and degree of spreading such as to avoid excessive dilution in the beginning of the experiment or control cell overgrowth toward the end. After 24 h, 10 μl of peptide stock solution or PBS (control) were added to the wells. After 96 h, 20 μl of the MTS-reagent were added to each well and 1–2 h later optical density was measured at the wavelength 492 nm using the 96-well plate reader (Titertek Multiskan, Labsystems, Finland). All experiments were conducted in duplicate or triplicate.

## [R]9CQCRRKN [GO-203]
ZR-75-1 cells
  quadrant I fraction (caspase-3/7 / SYTOX): 28.95%
  quadrant II fraction (caspase-3/7 / SYTOX): 35.47%
  quadrant III fraction (caspase-3/7 / SYTOX): 35.18%
  quadrant IV fraction (caspase-3/7 / SYTOX): 0.40%
HT-1080 cells [1]; control 23%
  cells in S phase: 24%
HT-1080 cells [1]; control 26%
  cells in G2/M phase: 27%
HT-1080 cells [1]; control 52%
  cells in G0/G1 phase: 50%
HT-1080 cells [2]
  Time at which carboxy-H2DCFDA fluorescence (ROS) begins to diverge from control: 80 to 90 min
  Time at which elevated level of ROS is evident: 120 min
[3]; 1 × 5: single dose of 5 μM, 96 h
  Cell viability (MTS): essentially inconsequential
[3]; 1 × 20: single dose of 20 μM, 96 h
  Cell viability (MTS): substantially cytotoxic
[3]; 4/5: four daily doses of 5 μM with exchanged growth medium, 96 h
  Cell viability (MTS): inefficient
[3]; 4 × 5: four daily doses of 5 μM without exchanging growth medium, OD 492 nm 96 h after first application
  Cell viability (MTS): considerable damage
